Experimental data reported in patent publication US7892754B2, “Hepatitis B virus pre-S1 derived synthetic polypeptides and uses thereof” (priority 2001, dated 2011).
Ends that are not written are not given here. Peptide text beside a SMILES is read from it. * marks the point of attachment. Myristoyl = CCCCCCCCCCCCCC(=O)*

Columns and labels:
[1] = tested on: HBV; assay: Polypeptide competition assay: inhibition of HBV infection of human hepatocyte cultures, HBsAg ELISA in supernatant; type: cell-based; details: for inhibitory activity against HBV infection, comparison of C-terminally truncated peptides: 0.8 to 800 nM; for effect on HBV infectivity (HBsAg secretion): FIG. 1
Text: (§1) Fragments of normal adult human liver were obtained from patients undergoing hepatic resection for liver metastases (the fragments were taken at a distance from the metastasis in macroscopically normal liver). Access to this biopsy material was in agreement with French laws and satisfied the requirements of the French National Ethics Committee. Hepatocytes were isolated by the procedure of Guguen-Guillouzo and Guillouzo and cultured in H medium supplemented with 3.5×10^−6 M hydrocortisone hemisuccinate, 2 mM L-glutamine, 50 mg of gentamicin per litre, 2% dimethyl sulfoxide, 5% adult human serum, and 5% FCS. Three days after seeding, the cells were infected.
As an infectious inoculum, a 50-fold concentrated culture medium of HepG2 clone 2.2.15 cells was used, because of an unlimited supply and a constant quality.
It was prepared as described previously. Differentiated cells were incubated with the concentrated infectious source, 10-fold diluted in culture medium supplemented with 5% PEG 8000 (Sigma), for 20 h at 37° C. as described previously (Gripon et al., 1988; Gripon et al., 1993). Control cultures were incubated with 5% PEG and 25% FCS diluted in phosphate-buffered saline (PBS) instead of the infectious source. At the end of the incubation, cells were washed three times with the culture medium and maintained in the presence of 2% DMSO and 5×10^−5 M hydrocortisone hemisuccinate and harvested at indicated times.
(§2) Polypeptide competition assays were performed by pre-incubating cells with the analyzed polypeptide for 30 min, at 37° C., prior to the addition of the infectious source.
HBsAg was detected in the medium by an ELISA kit (Monolisa AgHBs plus) obtained from Bio-Rad Laboratories. Values are expressed in ng/ml of supernatant or percent of control (absence of peptide).

[2] = tested on: DHBV; assay: In vivo DHBV infection inhibition in ducks (Dot Blot of viral DNA, Western Blot of L protein in serum); details: for L protein of DHBV in serum (Western Blot): 35 days post-infection, FIG. 6; for viral DNA in serum (Dot Blot): day 28 post-infection; for viral DNA in serum (Dot Blot) / viremia (Dot Blot of viral DNA in serum): FIG. 5; for viremia (Dot Blot of viral DNA in serum): ducks injected simultaneously with DHBV and peptide, days 9 and 15 post-infection
Experimental: Ducks are simultaneously injected with DHBV and duck preS Myr 2-41 (DpreS2-41^myr), heron preS Myr 2-44 (HepreS2-44^myr), human preS Myr 2-68 (HupreS2-68^myr), duck preS Myr 2-21 (DpreS2-21^myr) or ddH2O. The viremia of infected animals is assessed by Dot Blot analysis of viral DNA, 5, 9, 15 and 28 days post-infection.

[3] = tested on: DHBV; assay: In vitro DHBV infection of primary duck hepatocytes; type: cell-based
[4] = tested on: HBV; assay: Inhibition of HBV infection of human hepatocytes, RNA analysis (Northern blot); type: cell-based; details: myristoylation and C-terminal truncation of pre-S1 peptides
Text: as §1
It was prepared as described previously. Differentiated cells were incubated with the concentrated infectious source, 10-fold diluted in culture medium supplemented with 5% PEG 8000 (Sigma), for 20 h at 37° C. as described previously (Gripon et al., 1988; Gripon et al., 1993). […]
as §2
Total cellular RNA was extracted by Total SV RNA kit (Promega, France), fractionated on a 1.5% agarose gel and analyzed by standard Northern blot procedure (Sambrook et al., 1989). […]

[5] = 800 nM, HBsAg 7 days after infection, FIG. 2
[6] = 8 μM, HBsAg 8 days after infection, FIG. 3
[7] = HBsAg 7 days after infection, FIG. 2
[8] = 1 μM peptide, HBsAg 14 days post-infection
[9] = doses lower than 800 nM, FIG. 2

## CCCCCCCCCCCCCC(=O)NCC(=O)N[C@@H](CCC(N)=O)C(=O)N[C@@H](Cc1c[nH]cn1)C(=O)N1CCC[C@H]1C(=O)N[C@@H](C)C(=O)N[C@@H](CCCCN)C(=O)N[C@@H](CO)C(=O)N[C@@H](CCSC)C(=O)N[C@@H](CC(=O)O)C(=O)N[C@H](C(=O)N[C@@H](CCCNC(=N)N)C(=O)N[C@@H](CCCNC(=N)N)C(=O)N[C@H](C(=O)N[C@@H](CCC(=O)O)C(=O)NCC(=O)NCC(=O)N[C@@H](CCC(=O)O)C(=O)N[C@H](C(=O)N[C@@H](CC(C)C)C(=O)N[C@@H](CC(C)C)C(=O)N[C@@H](CC(N)=O)C(=O)N[C@@H](CCC(N)=O)C(=O)N[C@@H](CC(C)C)C(=O)N[C@@H](C)C(=O)NCC(=O)N[C@@H](CCCNC(=N)N)C(=O)N[C@@H](CCSC)C(=O)N[C@H](C(=O)N1CCC[C@H]1C(=O)N[C@@H](CCCCN)C(=O)NCC(=O)N[C@H](C(=O)N[C@@H](CC(C)C)C(=O)N[C@H](C(=O)N[C@@H](Cc1c[nH]c2ccccc12)C(=O)N[C@@H](CO)C(=O)NCC(=O)N[C@@H](CCCCN)C(=O)N[C@@H](Cc1ccccc1)C(=O)N1CCC[C@H]1C(=O)O)[C@@H](C)O)[C@@H](C)O)[C@@H](C)CC)[C@@H](C)CC)[C@@H](C)CC)C(C)C [DHBV Myr PreS 2-41] (Myristoyl-GQHPAKSMDVRRIEGGEILLNQLAGRMIPKGTLTWSGKFP-OH; C-terminus assumed)
[1]; text summary referring to table 1
  activity on HBV infection: complete absence of activity
[2]
  L protein of DHBV in serum (Western Blot): not detected
  viral DNA in serum (Dot Blot): decreased or no longer detectable
  viremia (Dot Blot of viral DNA in serum): transitory viremia
[3]
  inhibition of DHBV infection: strong inhibitor

## Myristoyl-GLNQSTFNPLGFFPSHQLDPLFKANAGSADWDKNPNKDPWPQAHDTA [WMHBV Myr PreS 2-48]
[1]; decreasing peptide concentrations, HBsAg day 10 post-infection, FIG. 4
  comparative inhibitory activity towards HBV infection of human cells: nearly as efficient as the HBV derived peptide

## CCCCCCCCCCCCCC(=O)NCC(=O)N[C@@H](CCC(N)=O)C(=O)N[C@@H](CC(N)=O)C(=O)N[C@@H](CC(C)C)C(=O)N[C@@H](CO)C(=O)N[C@H](C(=O)N[C@@H](CO)C(=O)N[C@@H](CC(N)=O)C(=O)N1CCC[C@H]1C(=O)N[C@@H](CC(C)C)C(=O)NCC(=O)N[C@@H](Cc1ccccc1)C(=O)N[C@@H](Cc1ccccc1)C(=O)N1CCC[C@H]1C(=O)N[C@@H](CC(=O)O)C(=O)N[C@@H](Cc1c[nH]cn1)C(=O)N[C@@H](CCC(N)=O)C(=O)N[C@@H](CC(C)C)C(=O)N[C@@H](CC(=O)O)C(=O)N1CCC[C@H]1C(=O)N[C@@H](C)C(=O)N[C@@H](Cc1ccccc1)C(=O)N[C@@H](CCCNC(=N)N)C(=O)N[C@@H](C)C(=O)N[C@@H](CC(N)=O)C(=O)N[C@H](C(=O)N[C@@H](C)C(=O)O)[C@@H](C)O)[C@@H](C)O [HBV Myr PreS 2-28]
[1]; [5]
  inhibition of HBV infection: 50%
[1]; [6]
  inhibitory activity against HBV infection: almost completely blocks HBV infection
[1]; [7]
  inhibitory activity against HBV infection, comparison of C-terminally truncated peptides: largely less active

## CCCCCCCCCCCCCC(=O)NCC(=O)N[C@@H](CCC(N)=O)C(=O)N[C@@H](Cc1c[nH]cn1)C(=O)N1CCC[C@H]1C(=O)N[C@@H](C)C(=O)N[C@@H](CCCCN)C(=O)N[C@@H](CO)C(=O)N[C@@H](CCSC)C(=O)N[C@@H](CC(=O)O)C(=O)N[C@H](C(=O)N[C@@H](CCCNC(=N)N)C(=O)N[C@@H](CCCNC(=N)N)C(=O)N[C@H](C(=O)N[C@@H](CCC(=O)O)C(=O)NCC(=O)NCC(=O)N[C@@H](CCC(=O)O)C(=O)N[C@H](C(=O)N[C@@H](CC(C)C)C(=O)N[C@@H](CC(C)C)C(=O)O)[C@@H](C)CC)[C@@H](C)CC)C(C)C [DpreS2-21^myr] (Myristoyl-GQHPAKSMDVRRIEGGEILL-OH)
[2]
  L protein of DHBV in serum (Western Blot): not detected
  viral DNA in serum (Dot Blot): decreased or no longer detectable
  viremia (Dot Blot of viral DNA in serum): transitory viremia
[3]; primary duck hepatocytes
  in vitro inhibitory activity towards DHBV infection: no in vitro inhibitory activity

## CCCCCCCCCCCCCC(=O)NCC(=O)N[C@@H](CCC(N)=O)C(=O)N[C@@H](CC(N)=O)C(=O)N[C@@H](CC(C)C)C(=O)N[C@@H](CO)C(=O)N[C@H](C(=O)N[C@@H](CO)C(=O)N[C@@H](CC(N)=O)C(=O)N1CCC[C@H]1C(=O)N[C@@H](CC(C)C)C(=O)NCC(=O)N[C@@H](Cc1ccccc1)C(=O)N[C@@H](Cc1ccccc1)C(=O)N1CCC[C@H]1C(=O)N[C@@H](CC(=O)O)C(=O)N[C@@H](Cc1c[nH]cn1)C(=O)N[C@@H](CCC(N)=O)C(=O)N[C@@H](CC(C)C)C(=O)N[C@@H](CC(=O)O)C(=O)N1CCC[C@H]1C(=O)N[C@@H](C)C(=O)N[C@@H](Cc1ccccc1)C(=O)N[C@@H](CCCNC(=N)N)C(=O)N[C@@H](C)C(=O)N[C@@H](CC(N)=O)C(=O)N[C@H](C(=O)N[C@@H](C)C(=O)N[C@@H](CC(N)=O)C(=O)N1CCC[C@H]1C(=O)N[C@@H](CC(=O)O)C(=O)N[C@@H](Cc1c[nH]c2ccccc12)C(=O)N[C@@H](CC(=O)O)C(=O)N[C@@H](Cc1ccccc1)C(=O)N[C@@H](CC(N)=O)C(=O)N1CCC[C@H]1C(=O)N[C@@H](CC(N)=O)C(=O)N[C@@H](CCCCN)C(=O)O)[C@@H](C)O)[C@@H](C)O [HBV Myr PreS 2-38]
[1]; [6]
  inhibitory activity against HBV infection: almost completely blocks HBV infection

## HBV Myr PreS 2-78: myristoylated HBV pre-S1 peptide, amino acids 2-78
[1]; [5]
  inhibitory activity against HBV infection: very efficient
[1]; [8]
  effect on HBV infectivity (HBsAg secretion): almost completely abolish it
[1]; [9]
  inhibitory activity against HBV infection: less active
[1]; lower doses than 1 μM
  effect on HBV infectivity (HBsAg secretion): partly inhibitory

## CCCCCCCCCCCCCC(=O)NCC(=O)N[C@@H](CCC(N)=O)C(=O)N[C@@H](CC(N)=O)C(=O)N[C@@H](CC(C)C)C(=O)N[C@@H](CO)C(=O)N[C@H](C(=O)N[C@@H](CO)C(=O)N[C@@H](CC(N)=O)C(=O)N1CCC[C@H]1C(=O)N[C@@H](CC(C)C)C(=O)NCC(=O)N[C@@H](Cc1ccccc1)C(=O)N[C@@H](Cc1ccccc1)C(=O)N1CCC[C@H]1C(=O)N[C@@H](CC(=O)O)C(=O)N[C@@H](Cc1c[nH]cn1)C(=O)N[C@@H](CCC(N)=O)C(=O)N[C@@H](CC(C)C)C(=O)N[C@@H](CC(=O)O)C(=O)N1CCC[C@H]1C(=O)N[C@@H](C)C(=O)N[C@@H](Cc1ccccc1)C(=O)N[C@@H](CCCNC(=N)N)C(=O)N[C@@H](C)C(=O)N[C@@H](CC(N)=O)C(=O)N[C@H](C(=O)N[C@@H](C)C(=O)N[C@@H](CC(N)=O)C(=O)N1CCC[C@H]1C(=O)N[C@@H](CC(=O)O)C(=O)N[C@@H](Cc1c[nH]c2ccccc12)C(=O)N[C@@H](CC(=O)O)C(=O)N[C@@H](Cc1ccccc1)C(=O)N[C@@H](CC(N)=O)C(=O)N1CCC[C@H]1C(=O)N[C@@H](CC(N)=O)C(=O)N[C@@H](CCCCN)C(=O)N[C@@H](CC(=O)O)C(=O)N[C@H](C(=O)N[C@@H](Cc1c[nH]c2ccccc12)C(=O)N1CCC[C@H]1C(=O)N[C@@H](CC(=O)O)C(=O)N[C@@H](C)C(=O)N[C@@H](CC(N)=O)C(=O)N[C@@H](CCCCN)C(=O)N[C@H](C(=O)NCC(=O)O)C(C)C)[C@@H](C)O)[C@@H](C)O)[C@@H](C)O [HBV Myr PreS 2-48]
[1]; [7]
  inhibitory activity against HBV infection, comparison of C-terminally truncated peptides: highest inhibitory activity
[4]
  inhibitory activity against HBV infection by RNA analysis: highest inhibitory activity

## HBV PreS 1-78: non myristoylated peptide, pre-S1 amino acids 1 to 78 of Hepatitis B virus subtype ayw
[1]; [8]
  effect on HBV infectivity (HBsAg secretion): only a faint effect

## HBV Myr PreS 2-68: myristoylated HBV pre-S1 peptide, amino acids 2-68
[1]; [5]
  inhibitory activity against HBV infection: very efficient
[1]; [9]
  inhibitory activity against HBV infection: less active
[2]; FIGS. 5 and 6
  infection of ducks with DHBV: seems to delay but do not prevent infection
